Among the data in PubChem BioAssay AID1421 (Emory University Molecular Libraries Screening Center, 2008) are outcome and PGE2 EC50 with compound values, retold here.

Calls of active or inactive are those of the source. How the calls were made is not given here.

For one test, the target named is Prostaglandin E2 receptor EP2 subtype (Homo sapiens) (UniProt P43116). The test is described as follows: compounds shifting PGE2 potency at EP2 – cell-based, human EP2, PGE2 EC50 shift, dose response (AID 1421). The note with it: EP2-expressing cells, PGE2 EC50 shift by compound.
Prostaglandin E2 receptor EP2 subtype (Homo sapiens), sequence (P43116 whole entry, looked up): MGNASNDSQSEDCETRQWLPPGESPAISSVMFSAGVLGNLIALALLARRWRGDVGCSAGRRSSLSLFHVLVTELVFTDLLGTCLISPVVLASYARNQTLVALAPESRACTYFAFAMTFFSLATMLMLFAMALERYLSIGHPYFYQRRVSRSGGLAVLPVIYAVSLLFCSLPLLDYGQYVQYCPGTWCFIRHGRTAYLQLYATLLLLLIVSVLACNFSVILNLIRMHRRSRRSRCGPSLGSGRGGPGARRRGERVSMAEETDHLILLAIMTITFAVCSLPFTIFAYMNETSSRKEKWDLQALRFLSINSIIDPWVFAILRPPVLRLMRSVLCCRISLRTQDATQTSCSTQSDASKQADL
Turning to `CC(C)(C)C1CCC(OC(=O)c2ccncc2)CC1` (centres undefined), the outcome was active.
On the same count and under the same terms, next, `C/C(=N\O)C(=O)OC1CC(C)CCC1C(C)C` (centres undefined): “active”; `CCOP(=S)(OCC)Oc1nc(Cl)c(Cl)cc1Cl`: “active”; `O=C(Nc1ccccc1-c1ccccc1)c1ccc(Br)o1`: “active”.
In the case of `COc1nc(-c2ccccc2)nnc1-c1ccccc1`, the outcome was active.
Consider `CCOC(=O)c1c(NC(=O)c2cccs2)sc(C)c1CC`, for which the result was active.
Same read-out and setting: the result for `O=C(CSc1nnc(-c2ccc(Cl)cc2)n1Cc1ccco1)c1cccs1` reads “active”; that for `CCOC(=O)c1cc(CC)sc1NC(=O)c1cc(OC)c(OC)c(OC)c1`, “active”.

The same test, now with this note: EP2-expressing cells, PGE2 EC50 shift by compound; measured here: PGE2 EC50 at 6.7 uM compound.
Turning to `CCc1ccc2[nH]c(=O)c(C(c3nnnn3CC3CCCO3)N3CCCc4ccccc43)cc2c1` (centres undefined), the PGE2 EC50 with compound came out at 0.99 nM.
For `CC(=O)c1ccc2c(c1)c1ccccc1n2CC(C)C`, the PGE2 EC50 with compound was found to be 1.35 nM.
The same measure, in the same setting: the result for `CN=C1CC(SC)=C1c1ccc(C)cc1` reads 0.84 nM; that for `Cc1ccccc1NC(=S)N(Cc1ccco1)C(C)c1cccs1` (centres undefined), 1.68 nM.
With `Cc1ccnc(SCC(=O)n2c3c(c4ccccc42)CC(C)CC3)n1` (centres undefined), the PGE2 EC50 with compound was found to be 0.86 nM.
As for `O=C(C(c1ccccc1)c1ccccc1)N1CCCc2ccccc21`, the PGE2 EC50 with compound turned out to be 0.71 nM.
As to `CC(C)(C)C1CCC(OC(=O)c2ccncc2)CC1` (centres undefined), the PGE2 EC50 with compound was 1.16 nM.
As to `Cc1cc(SCC(=O)Nc2cccnc2Cl)nc2ccccc12`, the PGE2 EC50 with compound came to 0.87 nM.
On the same count and under the same terms, next, `C/C(=N\O)C(=O)OC1CC(C)CCC1C(C)C` (centres undefined): 0.88 nM; `Cc1cc(Oc2ccccc2)nc(NCc2ccccc2)n1`: 0.63 nM.
Consider `Cc1ccc(C)c(CN2C(=O)C(C)Oc3ccc(C)cc32)c1` (centres undefined), for which the PGE2 EC50 with compound came to 0.31 nM.
Consider `Nc1cc(Cl)ccc1Oc1ccc(Cl)cc1`, for which the PGE2 EC50 with compound worked out at 0.75 nM.
Take `Cc1ccc(CSc2nc3ccccc3cc2C=O)cc1`: the PGE2 EC50 with compound stood at 0.73 nM.
Turning to `CCOC(=O)c1cnc2ccc(OCC)cc2c1N(C)Cc1ccccc1`, the PGE2 EC50 with compound came to 2.48 nM.
For `CCOC(=O)CCCCCCCCCCCCC1C=CCC1` (centres undefined), the PGE2 EC50 with compound stood at 0.96 nM.
In the case of `Cc1ccccc1NC1=C(C(=O)c2ccccc2)N(C)S(=O)(=O)c2ccccc21`, the PGE2 EC50 with compound is 1.01 nM.
With `Cn1c(=O)[nH]c(=O)c2c1nc(CN1CCN(c3cccc(Cl)c3)CC1)n2Cc1ccccc1Cl`, the PGE2 EC50 with compound was found to be 0.94 nM.
Turning to `CCN1C(c2ccccc2)C(C)C(=O)C(C)C1c1ccccc1` (centres undefined), the PGE2 EC50 with compound came out at 0.85 nM.
On the same count and under the same terms, the result for `Cc1ccc(C(C)C)c(OCCn2c(=O)oc3ccccc32)c1` reads 2.6 nM; that for `COc1ccc(C)cc1-n1c(=O)c2ccccc2c2ccccc2c1=O`, 0.71 nM.
As for `Cc1ccc(Nc2nc(CSc3nnc(-c4ccccc4C)n3C)cs2)cc1`, the PGE2 EC50 with compound was 1.35 nM.
As to `CCn1c2ccccc2c2nc3ccccc3nc21`, the PGE2 EC50 with compound was 1.55 nM.
Turning to `Cc1cc2ccccc2nc1SCC(=O)NC1CCCCC1`, the PGE2 EC50 with compound is 2.75 nM.
Take `O=C1CCC(C(=O)OCC(=O)N2N=C3/C(=C/c4ccccc4)CCCC3C2c2ccccc2)N1` (centres undefined): the PGE2 EC50 with compound was determined as 1.47 nM.
Regarding `CCOC(=O)c1c(NC(=O)CSc2ncnc3[nH]ncc23)sc2c1CCC(C)C2` (centres undefined), the PGE2 EC50 with compound amounted to 0.67 nM.
On the same count and under the same terms, next, `CC(C)=CCC/C(C)=C/CC/C(C)=C/CSc1ccccc1C(=O)O`: 0.69 nM.
`CCCCOc1ccc(-c2nnc(-c3ccco3)o2)cc1`: the PGE2 EC50 with compound turned out to be 1.18 nM.
`C=CCN1C(=O)/C(=C/c2ccc(O)c(OC)c2)S/C1=N/c1nccs1`: the PGE2 EC50 with compound came to 1.27 nM.
`CC(=O)O[C@H]1C[C@@H](OC(C)=O)C(C)(C)C2C[C@@H](OC(C)=O)[C@]3(C)C([C@H](OC(C)=O)C[C@@]4(C)[C@H](c5ccoc5)OC(=O)[C@H]5O[C@]543)[C@]21C` (some centres undefined): the PGE2 EC50 with compound came to 1.05 nM.
Same read-out and setting: the result for `CC1=NN(c2ccc(S(=O)(=O)O)cc2)C(=O)/C1=C\c1ccc(Cl)cc1` reads 1.07 nM; that for `CCOC(=O)/C(N=Nc1c(Br)cc(Br)cc1Br)=C(\C)O`, 0.84 nM; that for `CCCCC(CC)CN1CN(CC(CC)CCCC)CC(C)(N)C1` (centres undefined), 1.05 nM.
Turning to `CC(C)(C)N(Cc1ccccc1)C(=O)c1ccc(Br)o1`, the PGE2 EC50 with compound came out at 0.94 nM.
For `CCCCc1nc(N2CCOCC2)c(C#N)c2c1CCCC2`, the PGE2 EC50 with compound stood at 0.98 nM.
In the case of `COCCNC(=O)C(c1ccc(F)cc1)N(CC1CCCO1)C(=O)CCC(=O)Nc1ccccn1` (centres undefined), the PGE2 EC50 with compound was 2.09 nM.
`Cn1c(=O)[nH]c(=O)c2c1nc(CN1CCN(c3cccc(Cl)c3)CC1)n2CCCc1ccccc1`: the PGE2 EC50 with compound stood at 1.19 nM.
Take `COc1ccc(Cn2c(-c3ccc(OC)cc3)nc3ccccc32)cc1`: the PGE2 EC50 with compound came to 1 nM.
The same measure, in the same setting: next, `CCOP(=S)(OCC)Oc1nc(Cl)c(Cl)cc1Cl`: 0.91 nM; `COC(=O)c1c(NC(=O)Cc2cccs2)sc(C)c1C`: 0.88 nM; `CCN(CCO)c1ncnc2c1sc1nc(C(C)C)c3c(c12)CC(C)(C)OC3`: 0.69 nM.
Still for that read-out and setting: the result for `Cc1ccc(CN2C(=O)CN=C(c3ccccc3)c3ccccc32)cc1` reads 1.23 nM.
For `c1ccc(-c2nn3c(-c4ccccc4)nnc3s2)cc1`, the PGE2 EC50 with compound was 0.84 nM.
For the compound `COc1ccc(/C=C(\C#N)C(N)=O)cc1OC`, the PGE2 EC50 with compound is 1.31 nM.
Regarding `CCSc1nc2ccccc2n1Cc1ccccc1F`, the PGE2 EC50 with compound was 0.94 nM.
For `CC(C)n1c2ccccc2c2nc3ccccc3nc21`, the PGE2 EC50 with compound worked out at 2.59 nM.
On to `CC1=CC(C)(C)N(S(=O)(=O)c2ccc(F)cc2)c2ccc(C)cc21`, for which the PGE2 EC50 with compound amounted to 0.8 nM.
`Nc1ccc(SC(F)(F)F)cc1C(=O)c1ccccc1`: the PGE2 EC50 with compound amounted to 2.39 nM.
The same measure, in the same setting: the result for `O=C(CSc1ncnc2c1oc1ccccc12)Nc1ccccc1C(F)(F)F` reads 1.17 nM; that for `Cc1cccc(OCCCC(=O)N2CCCc3ccccc32)c1C`, 0.71 nM; that for `CCCCNc1nc2c(S(=O)(=O)c3ccccc3)nnn2c2ccccc12`, 1.17 nM.
For the compound `Cc1cccc(C)c1NC(=O)CSc1nc(COc2ccccc2)nc2ccccc12`, the PGE2 EC50 with compound amounted to 0.82 nM.
Still for that read-out and setting: the result for `COc1ccc(-c2nc3ccccc3n2Cc2ccccc2)cc1` reads 1.05 nM; that for `CC(C)(C)c1nc2ccccc2c(=O)n1N1C(=O)c2ccccc2C1=O`, 0.82 nM; that for `O=C(Nc1ccccc1-c1ccccc1)c1ccc(Br)o1`, 1.27 nM.
`COc1nc(-c2ccccc2)nnc1-c1ccccc1`: the PGE2 EC50 with compound was determined as 1.05 nM.
Same read-out and setting: the result for `N#Cc1c(-c2c(Cl)cccc2Cl)noc1/C=C/Nc1ccc(C(=O)O)cc1` reads 0.7 nM; that for `CNC(=O)NC(=O)CSc1nc(-c2cccs2)c(C#N)c(=O)[nH]1`, 3.08 nM; that for `CCOC(=O)c1c(NC(=O)c2cccs2)sc(C)c1CC`, 1.51 nM.
On to `O=C1C2C(c3ccccc3)C=CC(c3ccccc3)C2C(=O)N1c1ccncc1` (centres undefined), for which the PGE2 EC50 with compound is 0.65 nM.
As to `CCOC(=O)Cc1csc(NC(NC(=O)CC)(C(F)(F)F)C(F)(F)F)n1`, the PGE2 EC50 with compound worked out at 1.03 nM.
The same measure, in the same setting: next, `Cc1ccc(/C=C/c2nc3ccccc3c(=O)n2CCc2ccccc2)cc1`: 1.15 nM.
Take `CCOC(=O)c1ccccc1NC(=O)C1COc2ccccc2O1` (centres undefined): the PGE2 EC50 with compound came to 0.66 nM.
Consider `C=CCn1c(CCc2cc(C(C)(C)C)c(O)c(C(C)(C)C)c2)n[nH]c1=S`, for which the PGE2 EC50 with compound was found to be 1.14 nM.
On to `CCOC(=O)C1=CN(CC2CCCO2)C=C(C(=O)OCC)C1c1ccccc1C(F)(F)F` (centres undefined), for which the PGE2 EC50 with compound came to 1.3 nM.
On the same count and under the same terms, the result for `CC1CN(c2nc3ccccc3cc2-c2ccccc2)CC(C)O1` (centres undefined) reads 0.53 nM; that for `CCCOP(=O)(OCCC)c1nc(-c2ccccc2)oc1NCc1ccccc1`, 1.01 nM.
On the same count and under the same terms, the result for `O=C(Nc1ccccc1N1CCCCC1)c1cccc([N+](=O)[O-])c1` reads 0.9 nM; that for `C/C(=N\N=C(c1ccccc1)c1ccccc1)c1ccco1`, 0.97 nM.
`O=C(Nc1ccccc1N1CCCCC1)c1ccc2nccnc2c1`: the PGE2 EC50 with compound came to 1.35 nM.
Same read-out and setting: next, `COc1ccc(OC)c(C(=O)CSc2nnc(Cc3cccs3)n2CCc2ccccc2)c1`: 1.33 nM.
`Cc1ccc(N(C(=O)c2snc(C(N)=O)c2N)C(C(=O)NCCC(C)C)c2ccco2)cc1` (centres undefined): the PGE2 EC50 with compound was found to be 2.61 nM.
Consider `CCCCCCn1c(SCC(C)C)nc2c1c(=O)[nH]c(=O)n2C`, for which the PGE2 EC50 with compound came to 1.08 nM.
As for `Cc1nn2c(N3CCCC3)cc(C(C)C)nc2c1-c1ccccc1`, the PGE2 EC50 with compound was 0.84 nM.
With `Fc1cccc(CSc2ncnc3c2oc2ccccc23)c1`, the PGE2 EC50 with compound worked out at 2.7 nM.
For the compound `Cc1cccc(NC(=O)CSc2ncnc3c2oc2ccccc23)c1`, the PGE2 EC50 with compound worked out at 2.85 nM.
`CC(=O)N1Cc2ccccc2C(C)CC12CCCCC2` (centres undefined): the PGE2 EC50 with compound came to 0.93 nM.
For `Cc1cccc(N=N/C(=C\O)C(=O)c2ccc(Br)cc2)c1`, the PGE2 EC50 with compound worked out at 0.31 nM.
Regarding `O=C(CSc1nnc(-c2ccc(Cl)cc2)n1Cc1ccco1)c1cccs1`, the PGE2 EC50 with compound worked out at 2.65 nM.
Consider `O=c1c2ccccc2c(-c2ccccc2)nn1Cc1c(Cl)cccc1Cl`, for which the PGE2 EC50 with compound is 0.84 nM.
Still for that read-out and setting: the result for `N#CC1=C(N)SC(N)=C(C#N)C1c1ccoc1` reads 2.61 nM; that for `CCc1cc2cc(C)cc(C)c2nc1SCC(=O)N1CCCC1`, 3.07 nM.
As to `Cc1ccc2nc(N3CCC(C(=O)O)CC3)nc(-c3ccccc3)c2c1`, the PGE2 EC50 with compound was determined as 1.19 nM.
For the compound `C[C@H]1CC[C@@H](C(C)(C)O)CC2=C1CC[C@@H]2C`, the PGE2 EC50 with compound stood at 1.06 nM.
For the compound `CCOC(=O)c1cc(CC)sc1NC(=O)c1cc(OC)c(OC)c(OC)c1`, the PGE2 EC50 with compound turned out to be 0.82 nM.
For the compound `O=C(COc1ccccc1)Nc1cc(C(F)(F)F)ccc1N1CCCC1`, the PGE2 EC50 with compound came to 0.91 nM.
In the case of `Cn1c(=O)c2c(nc(SCC(=O)c3cccs3)n2Cc2ccc(F)cc2)n(C)c1=O`, the PGE2 EC50 with compound is 0.99 nM.
Consider `CCOC(=O)c1c(NC(=O)c2cccnc2)sc(C)c1C`, for which the PGE2 EC50 with compound worked out at 1.25 nM.
The same measure, in the same setting: the result for `CCCCOc1c(Br)cc(/C=N/O)cc1OCC` reads 0.93 nM; that for `CSc1nc(Sc2ccccc2Cl)c2ccccc2n1`, 0.7 nM; that for `CC[C@H](C)C(=O)O[C@H]1C[C@@H](C)C=C2C=C[C@H](C)[C@H](CC[C@@H]3C[C@@H](O)CC(=O)O3)[C@H]21`, 0.97 nM.
Still for that read-out and setting: next, `Cc1ccc2cccc(NC(=O)c3ccc(Br)o3)c2n1`: 0.83 nM.
